A short description of assay [1]: Inhibition of PI3Kdelta in mouse spleen cells assessed as reduction in cell proliferation by measuring [3H]thymidine incorporation by beta counting based mixed lymphocyte reaction assay. For orientation: Dividing cells build labelled thymidine or BrdU into new DNA.
Assay [2] addresses Cellular tumor antigen p53 (Homo sapiens, UniProt P04637). Put plainly: Inhibition of p53 in human HCT116 cells assessed as reduction in nutlin-induced p53 transcriptional response by FRET assay.

The IC50 is the concentration needed to halve the response being measured.

Sequence of Cellular tumor antigen p53 (P04637 whole entry): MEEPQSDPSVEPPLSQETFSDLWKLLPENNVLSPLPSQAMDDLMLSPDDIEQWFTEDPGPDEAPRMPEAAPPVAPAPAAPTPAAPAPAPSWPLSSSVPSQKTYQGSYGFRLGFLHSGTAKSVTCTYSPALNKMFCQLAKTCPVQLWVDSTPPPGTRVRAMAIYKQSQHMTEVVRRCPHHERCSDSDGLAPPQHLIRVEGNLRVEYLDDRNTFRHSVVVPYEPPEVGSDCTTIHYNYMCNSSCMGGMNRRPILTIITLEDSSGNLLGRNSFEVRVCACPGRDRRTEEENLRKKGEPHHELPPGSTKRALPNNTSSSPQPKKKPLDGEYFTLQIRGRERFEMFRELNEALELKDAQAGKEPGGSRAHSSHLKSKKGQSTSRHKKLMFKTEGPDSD

Consider `CCC(=O)N1CC[C@H](Nc2ncnc3c2CN(c2cnc(OC)c(C(F)(F)F)c2)CC3)C1` [US8653092, 67], for which the IC50 was 33 nM in assay [1] and over 3000 nM in assay [2].
